# In US7205403B2, “8-Heteroaryl xanthine adenosine A2B receptor antagonists” (King Pharmaceuticals Research and Development, Inc., priority 2002, dated 2007):
# Entries after “also recorded” stand apart in the source; their conditions may differ. Where two headings read alike, the source gives them in different places.
# Assays:
# [1] = target: T1, human A1 adenosine receptor (Homo sapiens, UniProt P30542); assay: [3H]DPCPX binding to human A1 receptors expressed in CHO cells
# T1 construct: expressed in transfected cells; host or cells: CHO cells (membranes)
# T1 sequence (P30542 1-326): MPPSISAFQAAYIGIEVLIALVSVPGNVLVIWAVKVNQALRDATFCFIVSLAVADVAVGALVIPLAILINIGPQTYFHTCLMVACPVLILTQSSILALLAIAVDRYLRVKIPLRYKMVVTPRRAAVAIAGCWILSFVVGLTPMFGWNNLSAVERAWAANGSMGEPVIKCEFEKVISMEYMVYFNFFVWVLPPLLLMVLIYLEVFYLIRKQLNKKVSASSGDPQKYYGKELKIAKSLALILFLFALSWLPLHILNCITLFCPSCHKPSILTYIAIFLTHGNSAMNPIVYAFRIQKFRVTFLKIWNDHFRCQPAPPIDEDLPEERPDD
# Procedure: The cells were grown adherently and maintained in Dulbecco's modified Eagle's medium with nutrient mixture F12 without nucleosides at 37° C. in 5% CO2/95% air. The cells were washed with phosphate-buffered saline and scraped off flasks in ice cold hypotonic buffer ([…] Tris HCl, 2 mM EDTA, pH 7.4). The cell suspension was homogenized with a Polytron and the homogenate was centrifuged for 30 minutes at 48,000 g. The resultant membrane pellet was re-suspended in 50 mM Tris HCl buffer at pH 7.4 for A1 adenosine receptors; in 50 mM Tris HCl 10 mM MgCl, at pH 7.4 for A2A adenosine receptors; in 50 mM Tris HCl, 10 mM MgCl2, 1 mM EDTA, at pH 7.4 for A3 adenosine receptors and were utilized for binding assays.
# Displacement experiments were performed for 120 minutes at 25° C. in 200 μl of buffer containing 1 nM ^3H]-DPCPX 20 μl of diluted membranes (50 μg of protein/assay) and at least 6 to 8 different concentrations of examined compounds.
# The filter bound radioactivity was counted on Top Count (efficiency 57%) with Micro-Scint 20.
# The filter bound radioactivity was counted on a Top Count brand Microplate Scintillation Counter (efficiency 57%) with Micro-Scint 20. […] Inhibitory binding constant. […] Results and Discussion
# [2] = target: T2, human A2A adenosine receptor (Homo sapiens, UniProt P29274); assay: [3H]ZM241385 binding to human A2A receptors expressed in CHO cells; conditions: for Ki: read-out: Ki, [3H]ZM241385 binding to human A2A receptors expressed in CHO cells; for Ki, [3H]ZM241385 binding to human A2A receptors expressed in CHO cells: geometric mean (95% confidence interval), >1000 = no appreciable binding
# T2 construct: expressed in transfected cells; host or cells: CHO cells (membranes)
# Summary of the method: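 Membranes from adherent CHO cells, resuspended in 50 mM Tris HCl with 10 mM MgCl2, pH 7.4. The inhibitory binding constant is reported.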
# [3] = target: T3, human A3 adenosine receptor (Homo sapiens, UniProt P0DMS8); assay: [3H]MRE3008F20 binding to human A3 receptors expressed in CHO cells; conditions: for Ki, [3H]MRE3008F20 binding to human A3 receptors expressed in CHO cells: geometric mean (95% confidence interval), >1000 = no appreciable binding
# T3 construct: expressed in transfected cells; host or cells: CHO cells (membranes)
# T3 sequence (P0DMS8 1-318): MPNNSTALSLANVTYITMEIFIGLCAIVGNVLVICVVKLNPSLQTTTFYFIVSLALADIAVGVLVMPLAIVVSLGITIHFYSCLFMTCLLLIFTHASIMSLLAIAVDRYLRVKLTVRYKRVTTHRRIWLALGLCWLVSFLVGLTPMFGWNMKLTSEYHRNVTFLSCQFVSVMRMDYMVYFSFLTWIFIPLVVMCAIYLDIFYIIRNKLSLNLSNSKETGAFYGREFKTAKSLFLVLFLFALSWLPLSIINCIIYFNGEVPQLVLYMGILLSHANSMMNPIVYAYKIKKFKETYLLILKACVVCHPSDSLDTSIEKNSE
# Summary of the method: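 CHO cell membranes (50 μg protein) competed against 1 nM [3H]-MRE3008-F20 in 50 mM Tris HCl, MgCl2, pH 7.4, with 6–8 ligand concentrations in duplicate, 120 minutes at 4° C. Filter-bound radioactivity counted by scintillation; inhibitory binding constants derived.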
# [4] = target: T4, human A2B adenosine receptor (Homo sapiens, UniProt P29275); assay: Cyclic AMP assay, antagonism of NECA-stimulated cAMP in CHO cells transfected with human A2B receptors; format: cell-based; conditions: inhibition of NECA (100 nM)-stimulated cAMP; geometric mean (95% confidence limits)
# T4 sequence (P29275 1-332): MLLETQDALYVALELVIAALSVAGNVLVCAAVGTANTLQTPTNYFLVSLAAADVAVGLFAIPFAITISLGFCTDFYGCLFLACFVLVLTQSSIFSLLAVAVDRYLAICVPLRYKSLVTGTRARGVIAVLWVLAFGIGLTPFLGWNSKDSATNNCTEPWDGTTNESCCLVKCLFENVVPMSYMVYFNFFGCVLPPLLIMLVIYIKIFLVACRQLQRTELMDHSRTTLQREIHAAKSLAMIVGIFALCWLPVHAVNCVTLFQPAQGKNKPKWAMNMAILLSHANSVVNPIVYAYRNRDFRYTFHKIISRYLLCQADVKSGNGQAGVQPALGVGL
# Procedure: Measurement of cyclic AMP (CAMP) levels in CHO cells transfected with human A2B adenosine receptors was performed in the following manner. CHO cells transfected with human A2B adenosine receptors were washed with phosphate-buffered saline, diluted tripsine and centrifuged for 10 minutes at 200 g.
# The reaction was terminated by the addition of cold 6% thrichloroacetic acid (TCA). The TCA suspension was centrifuged at 2000 g for 10 minutes at 4° C. and the supernatant was extracted four times with water saturated diethyl ether. The final aqueous, solution was tested for cAMP levels by a competition protein binding assay. Samples of cAMP standard (0–10 pmoles) were added to each test tube containing the incubation buffer (trizma base 0.1 M, aminophylline 8.0 mM, 2-mercaptoethanol 6.0 mM, pH 7.4) and [H^3]-cAMP in a total volume of 0.5 ml. The binding protein previously prepared from beef adrenals, was added to the samples previously incubated at 4° C. for 150 minutes, and after the addition of charcoal were centrifuged at 2000 g for 10 minutes. The clear supernatant was counted in a Beckman scintillation counter.
# Finally, to evaluate the regulation of adenylyl cyclase activity and to test whether the binding parameters correlated with the functional response, the IC50 values were obtained for inhibition of cAMP production by antagonists. In particular, we evaluated the capability of the several compounds to inhibit NECA (100 nM)-stimulated cyclic AMP accumulation.
# [5] = target: T4, human A2B adenosine receptor; assay: [3H]DPCPX binding to human A2B receptors expressed in HEK293 cells; set-up: host or cells: HEK 293 cells (membranes)
# Summary of the method: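 Membranes (20 μg protein) from HEK293 cells expressing recombinant human A2B receptor were incubated 60 min at 25° C with 40 nM [3H]-DPCPX and 6–8 compound concentrations. Buffer was Tris-HCl with MgCl2, 1 mM EDTA, 0.1 mM benzamidine and 2 IU/ml adenosine deaminase, pH 7.4. Filter-bound radioactivity gave the inhibitory binding constant.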
# [6] = geometric mean (95% confidence interval), >1000 = no appreciable binding
# [7] = Table 2, geometric mean (95% confidence limits), at least three experiments in duplicate, read-out: [3H]-DPCPX binding to human A2B receptors in HEK 293 cells Ki
# [8] = geometric mean (95% confidence interval), >1000 = no appreciable binding, read-out: Ki, [3H]DPCPX binding to human A2B receptors expressed in HEK293 cells
# T2 sequence (P29274 whole entry): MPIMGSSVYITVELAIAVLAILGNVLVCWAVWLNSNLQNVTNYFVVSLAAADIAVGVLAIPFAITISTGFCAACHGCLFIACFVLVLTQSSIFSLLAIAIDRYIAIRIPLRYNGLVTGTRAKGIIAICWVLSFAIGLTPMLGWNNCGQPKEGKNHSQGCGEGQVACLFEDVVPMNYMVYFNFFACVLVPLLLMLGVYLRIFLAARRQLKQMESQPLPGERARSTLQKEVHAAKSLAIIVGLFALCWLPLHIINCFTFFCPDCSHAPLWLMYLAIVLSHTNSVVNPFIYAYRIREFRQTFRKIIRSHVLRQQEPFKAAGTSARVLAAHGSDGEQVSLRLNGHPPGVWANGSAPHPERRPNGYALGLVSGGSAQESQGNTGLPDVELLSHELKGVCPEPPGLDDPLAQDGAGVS
Structure (SMILES),"Ki [1, 6] [nM]",Ki [2] [nM],Ki [3] [nM],IC50 [4] [nM],"Ki [5, 7] [nM]","Ki [5, 8] [nM]",Ki [1] [nM],"Ki, [3H]DPCPX binding to human A1 receptors expressed in CHO cells [1, 6]","Ki, [3H]ZM241385 binding to human A2A receptors expressed in CHO cells [2]","Ki, [3H]MRE3008F20 binding to human A3 receptors expressed in CHO cells [3]"
"CCCn1c(=O)c2[nH]c(-c3cc(NC(=O)Cc4ccccc4)nn3C)nc2n(CCC)c1=O [AS11, N-[5-(2,6-dioxo-1,3-dipropyl-2,3,6,9-tetrahydro-1H-purin-8-yl)-1-methyl-1H-pyrazol-3-yl]-2-phenylacetamide]",900,> 1000,> 1000,103,35,35,–,–,–,–
"CCCn1c(=O)c2[nH]c(-c3cc(NC(=O)Cc4ccc(OC)c(OC)c4)nn3C)nc2n(CCC)c1=O [AS28, 2-(3,4-dimethoxyphenyl)-N-[5-(2,6-dioxo-1,3-dipropyl-2,3,6,9-tetrahydro-1H-purin-8-yl)-1-methyl-1H-pyrazol-3-yl]acetamide]",–,> 1000,> 1000,120,38,38,–,no appreciable binding; also recorded: without significant binding,no appreciable binding; also recorded: without significant binding,no appreciable binding; also recorded: without significant binding
CCCn1c(=O)c2[nH]c(-c3cc(NC(=O)Cc4ccccc4)n(C)n3)nc2n(CCC)c1=O [AS35],–,–,–,152,34,34,–,–,–,–
"CCCn1c(=O)c2[nH]c(-c3cc(OCC(=O)N4CCN(c5ccccc5)CC4)nn3C)nc2n(CCC)c1=O [AS70, 1,3-di-n-propyl-8-{5-[2-oxo-2-(4-phenyl-piperazin-1-yl)-ethoxy]-2-methyl-2H-pyrazole-3-yl}-xanthine]",250,> 1000,> 1000,–,–,15,–,–,–,–
CCCn1c(=O)c2[nH]c(-c3cc(OCC(=O)Nc4ccc(C)cc4)nn3C)nc2n(CCC)c1=O [AS92],79,> 1000,> 1000,–,–,19,–,–,–,–
"CCCn1c(=O)c2[nH]c(-c3ccc(O)nc3)nc2n(CCC)c1=O [AS103, 1,3-di-n-propyl-8-(2-hydroxypyridin-5-yl)-xanthine]",–,606,116,–,–,4.9,81,–,–,–

# Now from value to compound, other results behind:
"Ki [1, 6] [nM]",Ki [2] [nM],Ki [3] [nM],IC50 [4] [nM],"Ki [5, 7] [nM]","Ki [5, 8] [nM]",Ki [1] [nM],Structure (SMILES),"Ki, [3H]DPCPX binding to human A1 receptors expressed in CHO cells [1, 6]","Ki, [3H]ZM241385 binding to human A2A receptors expressed in CHO cells [2]","Ki, [3H]MRE3008F20 binding to human A3 receptors expressed in CHO cells [3]"
520,> 1000,> 1000,128,28,28,–,"CCCn1c(=O)c2[nH]c(-c3cc(NC(=O)Cc4ccc(Cl)cc4)nn3C)nc2n(CCC)c1=O [AS27, N-[5-(2,6-dioxo-1,3-dipropyl-2,3,6,9-tetrahydro-1H-purin-8-yl)-1-methyl-1H-pyrazol-3-yl]-2-(4-chlorophenyl)acetamide]",–,–,–
181,> 1000,> 1000,–,–,185,–,"CCCn1c(=O)c2[nH]c(-c3cc(OCC(=O)Nc4ccc(F)cc4)n(C)n3)nc2n(CCC)c1=O [AS61, N-(4-fluorophenyl)-2-{[3-(2,6-dioxo-1,3-dipropyl-2,3,6,9-tetrahydro-1H-purin-8-yl)-1-methyl-1H-pyrazol-5-yl]oxy}acetamide]",–,–,–
72,> 1000,> 1000,–,–,207,–,"CC(C)Cn1c(=O)c2[nH]c(-c3cc(OCC(=O)Nc4ccc(F)cc4)n(C)n3)nc2n(CC(C)C)c1=O [AS62, 2-{[3-(1,3-diisobutyl-2,6-dioxo-2,3,6,9-tetrahydro-1H-purin-8-yl)-1-methyl-1H-pyrazol-5-yl]oxy}-N-(4-fluorophenyl)acetamide]",–,–,–
49,> 1000,> 1000,–,–,66,–,"CC(C)Cn1c(=O)c2[nH]c(-c3cc(OCC(=O)Nc4ccc(Br)cc4)n(C)n3)nc2n(CC(C)C)c1=O [AS63, 2-{[3-(1,3-diisobutyl-2,6-dioxo-2,3,6,9-tetrahydro-1H-purin-8-yl)-1-methyl-1H-pyrazol-5-yl]oxy}-N-(4-bromophenyl)acetamide]",–,–,–
2430,> 1000,> 1000,–,–,132,–,"CC(C)Cn1c(=O)c2[nH]c(-c3cc(OCC(=O)Nc4ccc(Br)cc4)nn3C)nc2n(CC(C)C)c1=O [AS67, 2-{[5-(1,3-diisobutyl-2,6-dioxo-2,3,6,9-tetrahydro-1H-purin-8-yl)-1-methyl-1H-pyrazol-3-yl]oxy}-N-(4-bromophenyl)acetamide]",–,–,–
–,–,–,–,–,86,–,CCCn1c(=O)c2[nH]c(-c3cc(OCC(=O)Nc4ccc(C(C)=O)cc4)nn3C)nc2n(CCC)c1=O [AS69],without significant binding,without significant binding,without significant binding
700,> 1000,> 1000,–,–,10,–,"CCCn1c(=O)c2[nH]c(-c3cc(OCC(=O)Nc4ccc(C)c(C)c4)nn3C)nc2n(CCC)c1=O [AS99, 1,3-di-n-propyl-8-{5-[(3,4-dimethyl-phenylcarbamoyl)-methoxy]-2-methyl-2H-pyrazole-3-yl}-xanthine]",–,–,–
300,> 1000,> 1000,–,–,16,–,"CCCn1c(=O)c2[nH]c(-c3cc(OCC(=O)Nc4ccc(Cl)c(Cl)c4)nn3C)nc2n(CCC)c1=O [AS100, 1,3-di-n-propyl-8-{5-[(3,4-chloro-phenylcarbamoyl)-methoxy]-2-methyl-2H-pyrazole-3-yl}-xanthine]",–,–,–
